According to the supplement of paper PMC10307832:

Legend:
Assay in all cases: relative viability (nuclei count vs DMSO), 5 days (fraction); higher = more cells survive
[1] = compound: CC1=C(C(=NN1)C)CC2=C(C3=C(S2)N(C(=O)N(C3=O)C)CC(C)C)C(=O)N4C[C@@H](CO4)O + C[C@@H](Oc1cc(-c2cnn(C3CCNCC3)c2)cnc1N)c1c(Cl)ccc(F)c1Cl [Crizotinib] (partner 1 µM)
Outline: (§1)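 One day after seeding in 1536-well plates, lung cancer cell lines were dosed by pin tool. Dosing was either single-drug or a fixed anchor-drug dose plus five library-drug doses (not always all listed) in √10 steps. After 5 days, nuclei were stained in one fix-and-stain step and counted on 4× images, and relative viability is the nuclei count of treated wells over that of vehicle wells, given as the median of duplicate plates.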

[2] = compound: CC1=C(C(=NN1)C)CC2=C(C3=C(S2)N(C(=O)N(C3=O)C)CC(C)C)C(=O)N4C[C@@H](CO4)O + CC(C)C[C@H](NC(=O)[C@H](Cc1ccccc1)NC(=O)c1cnccn1)B(O)O [Bortezomib] (partner 0.002 µM)
Outline: as §1

[3] = compound: CC1=C(C(=NN1)C)CC2=C(C3=C(S2)N(C(=O)N(C3=O)C)CC(C)C)C(=O)N4C[C@@H](CO4)O + CCNC(=O)c1noc(-c2cc(C(C)C)c(O)cc2O)c1-c1ccc(CN2CCOCC2)cc1 [Luminespib] (partner 0.01 µM)
Outline: as §1

[4] = compound: CC1=C(C(=NN1)C)CC2=C(C3=C(S2)N(C(=O)N(C3=O)C)CC(C)C)C(=O)N4C[C@@H](CO4)O + O=C(CCCCCCC(=O)Nc1ccccc1)NO [Vorinostat] (partner 1 µM)
Outline: as §1

In the case of UMC-11, the relative viability ([1]; first compound 0.0025 µM) was 0.647, the relative viability ([1]; first compound 0.007906 µM) was 0.346 and the relative viability ([1]; first compound 0.025 µM) was 0.441. The relative viability ([1]; first compound 0.07906 µM) was 0.628, the relative viability ([1]; first compound 0.25 µM) was 0.657 and the relative viability ([2]; first compound 0.0025 µM) was 0.667. The relative viability ([2]; first compound 0.007906 µM) was 0.189, the relative viability ([2]; first compound 0.025 µM) was 0.173 and the relative viability ([2]; first compound 0.07906 µM) was 0.22. The relative viability ([2]; first compound 0.25 µM) was 0.32, the relative viability ([3]; first compound 0.0025 µM) was 1.06 and the relative viability ([3]; first compound 0.007906 µM) was 1.33. The relative viability ([3]; first compound 0.025 µM) was 0.959, the relative viability ([3]; first compound 0.07906 µM) was 1.08 and the relative viability ([3]; first compound 0.25 µM) was 1.13. It also gave a relative viability ([4]; first compound 0.0025 µM) of 0.41, a relative viability ([4]; first compound 0.007906 µM) of 0.429 and a relative viability ([4]; first compound 0.025 µM) of 0.396. It also gave a relative viability ([4]; first compound 0.07906 µM) of 0.464 and a relative viability ([4]; first compound 0.25 µM) of 0.424.
